Measurements published in ChEMBL document CHEMBL4739717, “Methods of treating cartilage disorders through inhibition of clk and dyrk” (2020).
Activity calls are given as the source filed them. The calls are words filed in the database; no cut-off is given here.

How the values were obtained:
[1] = target: Dual specificity tyrosine-phosphorylation-regulated kinase 1A (Homo sapiens, UniProt Q13627); assay: Inhibition of recombinant DYRK1A (unknown origin) using Ser/Thr 18 peptide as substrate incubated for 1 hr in presence of ATP by FRET assay
[2] = Effect on Wnt signaling pathway in human SW480 cells harbouring TCF/LEF luciferase reporter gene and SP5-Luc reporter gene incubated for 36 to 48 hrs by luminescence assay; format: cell-based
[3] = Induction of chondrogenesis in human MSC assessed as maximum activity at 2700 nM incubated for 6 days by rhodamine B and Nile red staining based imaging analysis relative to control; format: functional; conditions: BMMSC, 144 h, time 6 day
[4] = Induction of chondrogenesis in human MSC assessed as incubated for 6 days by rhodamine B and Nile red staining based imaging analysis; format: functional; conditions: bmmsc
[5] = Inhibition of IL1-beta induced MMP3 expression levels in human chondrocytes assessed as MMP3 levels incubated for 2hrs followed by IL1-beta stimulation and measured after overnight incubation by LANCE assay; format: functional, cell-based; conditions: Chondrocyte
[6] = target: Dual specificity protein kinase CLK2 (Homo sapiens, UniProt P49760); assay: Inhibition of recombinant CLK2 (unknown origin) using Ser/Thr 6 peptide as substrate incubated for 1 hr in presence of ATP by FRET assay
Chain of Dual specificity protein kinase CLK2 (P49760 whole entry): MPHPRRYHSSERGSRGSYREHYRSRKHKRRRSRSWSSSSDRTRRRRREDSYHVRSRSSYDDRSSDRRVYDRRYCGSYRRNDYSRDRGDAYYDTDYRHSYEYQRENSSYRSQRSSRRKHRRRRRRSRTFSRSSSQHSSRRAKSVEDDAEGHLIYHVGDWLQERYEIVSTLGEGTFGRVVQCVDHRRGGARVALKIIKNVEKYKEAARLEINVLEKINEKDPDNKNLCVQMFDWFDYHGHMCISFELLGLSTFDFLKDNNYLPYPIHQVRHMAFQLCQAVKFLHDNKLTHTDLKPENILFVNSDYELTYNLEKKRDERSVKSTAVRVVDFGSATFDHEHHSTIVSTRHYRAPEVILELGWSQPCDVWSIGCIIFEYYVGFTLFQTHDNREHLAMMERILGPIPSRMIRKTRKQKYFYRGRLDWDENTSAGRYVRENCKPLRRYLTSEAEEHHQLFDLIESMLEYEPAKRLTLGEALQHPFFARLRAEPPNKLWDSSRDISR

[7] = Induction of chondrogenesis in human MSC assessed as maximum activity at 30 nM incubated for 6 days by rhodamine B and Nile red staining based imaging analysis relative to control; format: functional; conditions: BMMSC, 144 h, time 6 day
[8] = target: Dual specificity protein kinase CLK3 (Homo sapiens, UniProt P49761); assay: Inhibition of recombinant CLK3 (unknown origin) using Ser/Thr 18 peptide as substrate incubated for 1 hr in presence of ATP by FRET assay
Chain of Dual specificity protein kinase CLK3 (P49761 whole entry): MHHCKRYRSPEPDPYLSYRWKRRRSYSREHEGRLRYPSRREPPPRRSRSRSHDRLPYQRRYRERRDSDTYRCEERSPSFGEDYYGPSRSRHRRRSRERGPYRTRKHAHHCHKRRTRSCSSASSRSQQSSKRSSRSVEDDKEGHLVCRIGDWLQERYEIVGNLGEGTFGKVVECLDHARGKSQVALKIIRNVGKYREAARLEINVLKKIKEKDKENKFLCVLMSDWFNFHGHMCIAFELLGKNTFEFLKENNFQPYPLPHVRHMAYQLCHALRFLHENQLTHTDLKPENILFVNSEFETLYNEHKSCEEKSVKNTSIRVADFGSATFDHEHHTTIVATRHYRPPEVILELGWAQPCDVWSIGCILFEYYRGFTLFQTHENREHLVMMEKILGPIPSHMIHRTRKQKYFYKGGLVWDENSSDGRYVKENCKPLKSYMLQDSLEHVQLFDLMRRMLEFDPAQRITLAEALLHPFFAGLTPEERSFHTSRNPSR

[9] = Inhibition of IL1-beta induced MMP3 expression levels in human chondrocytes assessed as MMP3 levels incubated for 2hrs followed by IL1-beta stimulation and measured after overnight incubation by LANCE assay relative to control; format: functional, Chondrocyte
Chondrocyte [10] = assay: Inhibition of IL1-beta induced MMP3 expression levels in human chondrocytes assessed as MMP3 levels incubated for 2hrs followed by IL1-beta stimulation and measured after 24 hrs by qRT-PCR analysis; format: functional; conditions: time 26.0 hrs
[11] = Induction of chondrogenesis in human MSC assessed as maximum activity at 10 nM incubated for 6 days by rhodamine B and Nile red staining based imaging analysis relative to control; format: functional; conditions: BMMSC, 144 h, time 6 day
Chondrocyte [12] = assay: Inhibition of IL1-beta induced MMP-13 expression levels in human chondrocytes assessed as MMP-13 levels incubated for 2hrs followed by IL1-beta stimulation and measured after 24 hrs by qRT-PCR analysis; format: functional; conditions: time 26.0 hrs
[13] = Induction of chondrogenesis in human MSC assessed as maximum activity at 100 nM incubated for 6 days by rhodamine B and Nile red staining based imaging analysis relative to control; format: functional; conditions: BMMSC, 144 h, time 6 day
[14] = Induction of chondrogenesis in human MSC assessed as maximum activity at 300 nM incubated for 6 days by rhodamine B and Nile red staining based imaging analysis relative to control; format: functional; conditions: BMMSC, 144 h, time 6 day

EC50 [1]	EC50 [2]	EC50 [4]	EC50 [5]	EC50 [6]	EC50 [8]	SMILES	Emax at 2.7 µM [3]	Emax at 0.03 µM [7]	Imax [9]	Activity (Chondrocyte [10])	Emax at 0.01 µM [11]	Activity (Chondrocyte [12])	Emax at 0.1 µM [13]	Emax at 0.3 µM [14]
9 nM	1660 nM	300 nM	3000 nM			CC(C)Nc1cncc(-c2ccc3[nH]nc(-c4nc5c(-c6cc(F)cc(NCCN(C)C)c6)cncc5[nH]4)c3n2)c1	96.8%							
8 nM	61.5 nM			3 nM	21 nM	CCCC(=O)Nc1cncc(-c2cc3c(-c4nc5c(-c6ccsc6)cncc5[nH]4)n[nH]c3cn2)c1		42%						
21 nM	> 10000 nM		3000 nM	32 nM	> 10000 nM	O=C(Nc1ccc(N2CCC(F)(F)C2)nc1)c1n[nH]cc1C#Cc1cccnc1			88.5%					
1 nM	284 nM	30 nM	9980 nM			CN1CCN(c2cc(Nc3ncc4c(-c5ccc6ncccc6c5)c[nH]c4n3)ccn2)CC1				inactive	73.4%	inactive		
45 nM	386 nM	10 nM		6 nM	49 nM	CN(C)CCNc1cc(F)cc(-c2cccc3[nH]c(-c4n[nH]c5cnc(-c6cncc(NC(=O)C(C)(C)C)c6)cc45)cc23)c1		87.3%						
10 nM	325 nM		3000 nM			CN1CCN(c2nccc3[nH]c(-c4n[nH]cc4/C=C/c4cncc(F)c4)nc23)CC1				inactive	39%	inactive		
2 nM	> 10000 nM	100 nM	1150 nM			Cc1cn(-c2cncc3[nH]c(-c4n[nH]c5ccc(-c6cncc(NC(=O)C(C)(C)C)c6)nc45)nc23)cn1	150%							
			19.1 nM	4 nM	66 nM	Cn1cc(-c2ccc3cnc(NC(=O)c4cnc5ccccc5c4)cc3c2)cn1			41.2%					
12 nM	11 nM			17 nM	45 nM	Oc1cncc(-c2ccc3[nH]nc(-c4nc5c(-c6cccc(F)c6)ccnc5[nH]4)c3c2)c1							52.2%	
91 nM	1170 nM	10 nM		4 nM	74 nM	CN(C)Cc1cncc(-c2cnc3[nH]nc(-c4cc5c(-c6cccc(F)c6)nccc5[nH]4)c3c2)c1					110%			
45 nM	809 nM		3000 nM	37 nM	3950 nM	Cc1n[nH]c2ccc(-c3cncc(N[C@H](CO)Cc4cccc(C(F)(F)F)c4)n3)cc12								
1 nM	1030 nM		4 nM	8 nM	717 nM	O=C(N[C@H]1C[C@@H]1c1ccccc1)c1n[nH]c2ccc(-c3cncc(CN4CCCCC4)c3)cc12								
	9.5 nM	2700 nM	3000 nM	1 nM	11 nM	O=C(Nc1cc2cc(-c3cncc(N[C@H]4CCNC[C@@H]4F)n3)ccc2cn1)C1CC1	68%							
21 nM	834 nM	30 nM		5 nM	1760 nM	Cc1n[nH]c2ccc(-c3cncc(O[C@H]4CCNC[C@H]4F)n3)cc12		54.2%						
11 nM			75.8 nM			CC(C)N1CCC(Oc2cc(C(=O)Nc3cc4cc(-c5cnn6c5CCNC6)ccc4cn3)ccn2)CC1				inactive				
	2.8 nM	2700 nM				C[C@@H]1CN(c2ccc(NC(=O)c3n[nH]c4ccc(-c5cncc(CN6CCCCC6)c5)cc34)cn2)C[C@H](C)O1	129%							
			3000 nM	3 nM	49 nM	Cn1cc(-c2ccc3cnc(NC(=O)c4ccc5c(cnn5C)c4)cc3c2)cn1			46.9%					
						CN1CCN(c2cc(C(=O)Nc3cc4cc(-c5cnn(C)c5)ccc4cn3)ccn2)CC1					27.1%	inactive		
			3000 nM			CN1CCC(Oc2ccc(C(=O)Nc3cc4cc(-c5cnn(C)c5)ccc4cn3)cc2)CC1				inactive	25.4%			

EC50 [1]	EC50 [2]	EC50 [4]	EC50 [5]	EC50 [6]	EC50 [8]	SMILES	Emax at 2.7 µM [3]	Emax at 0.03 µM [7]	Imax [9]	Activity (Chondrocyte [10])	Emax at 0.01 µM [11]	Activity (Chondrocyte [12])	Emax at 0.1 µM [13]	Emax at 0.3 µM [14]
3 nM	344 nM		20.8 nM	1 nM	182 nM	NC1CN(c2cncc(-c3ccc4[nH]nc(-c5nc6ccncc6[nH]5)c4c3)n2)C1			61.5%					
9 nM	256 nM		1050 nM	1 nM	1420 nM	Cc1n[nH]c2ccc(-c3cncc(NC4CCNCC4)n3)cc12								
27 nM	119 nM		811 nM	24 nM	3700 nM	Cc1ccc(C(=O)Nc2c[nH]nc2C(=O)Nc2ccc(OCCN3CCCC3)nc2)cn1			23.7%					
11 nM	672 nM	100 nM		1 nM	1720 nM	Cc1n[nH]c2ccc(-c3cncc(O[C@H]4CCNC[C@@H]4F)n3)cc12							44.9%	
12 nM	6 nM	100 nM		5 nM	48 nM	Fc1cccc(-c2cncc3[nH]c(-c4n[nH]c5ncc(-c6cccnc6)cc45)nc23)c1								157%
	47.1 nM	2700 nM	8 nM			CC(C)NC(=O)c1n[nH]c2ccc(-c3cncc(CN4CCC(F)(F)CC4)c3)cc12	104%							
4 nM	988 nM	900 nM	3.7 nM			O=C(Nc1ccc(CN2CCCC2)cc1)c1n[nH]cc1/C=C/c1cccnc1	194%							
4 nM	1390 nM		1.6 nM	10 nM	6150 nM	O=C(N[C@H]1C[C@@H]1c1ccccc1)c1n[nH]c2ccc(-c3cccnc3)cc12								
11 nM	> 10000 nM			9 nM	1900 nM	CN1CCN(c2nccc3[nH]c(-c4n[nH]c5ncc(-c6cncc(CN7CCCCC7)c6)cc45)cc23)CC1								50.7%
			3000 nM			Cn1cncc1-c1ccc2cnc(NC(=O)c3ccc(F)cc3)cc2c1	24.9%							
5 nM	445 nM	10 nM		1 nM	52 nM	CCC(=O)Nc1cncc(-c2ccc3[nH]nc(-c4cc5c(N6CCCCC6)nccc5[nH]4)c3c2)c1		244%						
3 nM	226 nM		3000 nM	1 nM	81 nM	CN1CCN(c2ccc(NC(=O)c3n[nH]c4ccc(-c5cncc(NC(=O)c6c(F)cccc6F)c5)cc34)cn2)CC1			54.9%					
40 nM	1270 nM			4 nM	49 nM	CN(C)CCNc1cc(F)cc(-c2cccc3[nH]c(-c4n[nH]c5ccc(-c6cncc(CN7CCCCC7)c6)nc45)cc23)c1		48.5%						
2 nM	285 nM	30 nM	6.7 nM			O=C(Nc1cncc(-c2ccc3[nH]nc(-c4cc5cnccc5[nH]4)c3c2)c1)C1CCCCC1	155%		100%					
21 nM	> 10000 nM			11 nM	> 10000 nM	O=C(CC1CCNCC1)Nc1cncc(-c2cnc3[nH]nc(-c4cc5c(-c6ccncc6)ccnc5[nH]4)c3c2)c1		26.7%						
4 nM	90.3 nM	2700 nM	1.5 nM			CC(C)Oc1cncc(C(=O)Nc2c[nH]nc2C(=O)Nc2ccc(OC3CCN(C)CC3)nc2)c1	140%							
2 nM	227 nM	300 nM		3 nM	313 nM	Cc1n[nH]c2ccc(-c3cncc(O[C@H]4CCNCC4(F)F)n3)cc12								82.1%
			1060 nM	10 nM	78 nM	CN1CCN(c2cc(CC(=O)Nc3cc4cc(-c5cnn(C)c5)ccc4cn3)ccn2)CC1			100%					
80 nM	19.1 nM	10 nM		21 nM	90 nM	Fc1cccc(-c2ccnc3[nH]c(-c4n[nH]c5ccc(-c6cncc(CN7CCC(F)(F)C7)c6)cc45)nc23)c1		85.8%						

SMILES	EC50 [1]	EC50 [2]	EC50 [4]	EC50 [5]	EC50 [6]	EC50 [8]	Emax at 2.7 µM [3]	Emax at 0.03 µM [7]	Imax [9]	Activity (Chondrocyte [10])	Emax at 0.01 µM [11]	Activity (Chondrocyte [12])	Emax at 0.1 µM [13]	Emax at 0.3 µM [14]
Cc1nnc(-c2ccc3cnc(NC(=O)c4ccnc(C5=CCN(C)CC5)c4)cc3c2)s1				143 nM	2 nM	14 nM			35.3%					
